{
  "source": "patent US9789095B2",
  "about": "“Inhibitors of calcium-activated chloride channels” (The Regents of the University of California, priority 2007, dated 2017)",
  "data": [
    {"system": "calcium-activated chloride channel (CaCC)", "assay": "YFP fluorescence plate reader iodide influx assay in HT-29 cells (ATP/carbachol)", "assay_type": "cell-based, human", "settings": "class A aminothiophenes, semi-quantitative", "description": "(§1) Screening was performed using a customized screening system (BECKMAN COULTER, Inc., Indianapolis, Ind.) consisting of the SAGIAN Core system integrated with SAMI software, and equipped with an ORCA arm for labware transport, a 96-channel head BIOMEK FX, CO2 incubator, plate washer, bar code reader, delidding station, and two FLUOstar OPTIMA fluorescence plate readers (BMG Labtechnologies, Durham, N.C.), each equipped with syringe pumps and custom excitation/emission filters (500/544 nm; CHROMA, Brattleboro, Vt.).\n(§2) HT-29 cells expressing YFP-H148Q/I152L were plated in 96-well plates at 70% confluence. Plates were incubated overnight at 37° C., 5% CO2 and then the growth medium was replaced with fresh growth medium. […] YFP fluorescence was measured 1 s before and for 30 s after addition of a PBS-iodide solution (PBS that has 100 mM chloride replaced by iodide) containing carbachol and ATP (100 μM each). Each 96-well plate contained ‘positive’ controls (DMSO vehicle without agonists or test compounds) and ‘negative’ controls (DMSO vehicle with agonists but without test compounds). In some experiments solutions included (individually or in combination): carbachol, ATP, or histamine (at 50, 100, 150 or 200 μM), calcimycin (10 μM), thapsigargin (2 μM) and CFTRinh-172 (20 μM).\n(§3) Iodide influx (d[I^−]/dt at t=0) was computed from fluorescence time course data by single exponential regression, as described (Ma et al., J. Clin. Invest. 110:1651-8 (2002)). Percentage inhibition was computed as: percentage inhibition=100×(Slopenegative control−Slopetest compound)/(Slopenegative control−Slopepositive control).", "units": {"% inhibition at 25 μM": "%"}, "values": [
      {"smiles": "CC(C)(C)C1CCc2c(sc(NC(=O)c3cccc(Cl)c3)c2C(=O)O)C1", "note": "(centres unmarked) [CaCCinh-A03, 6-tert-butyl-2-(3-chlorobenzamido)-4,5,6,7-tetrahydrobenzo[b]thiophene-3-carboxylic acid]", "% inhibition at 25 μM": 50},
      {"smiles": "COc1ccc(NC(=O)c2c(NC(=O)CCC(=O)O)sc3c2CCC(C(C)(C)C)C3)cc1", "note": "(centres unmarked) [CaCCinh-A18, 4-(6-tert-butyl-3-(4-methoxyphenylcarbamoyl)-4,5,6,7-tetrahydrobenzo[b]thiophen-2-ylamino)-4-oxobutanoic acid]", "% inhibition at 25 μM": 35},
      {"smiles": "Cc1ccccc1C(=O)Nc1sc2c(c1C(=O)O)CCC(C(C)(C)C)C2", "note": "(centres unmarked) [CaCCinh-A02, 6-tert-butyl-2-(2-methylbenzamido)-4,5,6,7-tetrahydrobenzo[b]thiophene-3-carboxylic acid]", "% inhibition at 25 μM": 95},
      {"smiles": "CC(C)(C)C1CCc2c(sc(NC(=O)c3ccccc3Cl)c2C(=O)O)C1", "note": "(centres unmarked) [CaCCinh-A05, 6-tert-butyl-2-(2-chlorobenzamido)-4,5,6,7-tetrahydrobenzo[b]thiophene-3-carboxylic acid]", "% inhibition at 25 μM": 75},
      {"smiles": "CCOC(=O)c1c(NC(=O)C2CCCCC2C(=O)O)sc2c1CCC(C(C)(C)C)C2", "note": "(centres unmarked) [CaCCinh-A08, 2-(6-tert-butyl-3-(ethoxycarbonyl)-4,5,6,7-tetrahydrobenzo[b]thiophen-2-ylcarbamoyl)cyclohexanecarboxylic acid]", "% inhibition at 25 μM": 80},
      {"smiles": "CCOC(=O)c1c(NC(=O)/C=C/C(=O)O)sc2c1CCC(C(C)(C)C)C2", "note": "(centres unmarked) [CaCCinh-A07, (E)-4-(6-tert-butyl-3-(ethoxycarbonyl)-4,5,6,7-tetrahydrobenzo[b]thiophen-2-ylamino)-4-oxobut-2-enoic acid]", "% inhibition at 25 μM": 98},
      {"smiles": "O=C(Nc1sc2c(c1C(=O)O)CCCCC2)c1ccccc1", "note": "[CaCCinh-A13, 2-benzamido-5,6,7,8-tetrahydro-4H-cyclohepta[b]thiophene-3-carboxylic acid]", "% inhibition at 25 μM": 27},
      {"smiles": "CC(C)(C)C1CCc2c(sc(NC(=O)c3ccccc3)c2C(=O)O)C1", "note": "(centres unmarked) [CaCCinh-A04, 2-benzamido-6-tert-butyl-4,5,6,7-tetrahydrobenzo[b]thiophene-3-carboxylic acid]", "% inhibition at 25 μM": 85},
      {"smiles": "COc1cccc(C(=O)Nc2sc3c(c2C(=O)O)CCCCC3)c1", "note": "[CaCCinh-A15, 2-(3-methoxybenzamido)-5,6,7,8-tetrahydro-4H-cyclohepta[b]thiophene-3-carboxylic acid]", "% inhibition at 25 μM": 20},
      {"smiles": "COC(=O)c1c(NC(=O)CCC(=O)O)sc2c1CCC(C(C)(C)C)C2", "note": "(centres unmarked) [CaCCinh-A11, 4-(6-tert-butyl-3-(methoxycarbonyl)-4,5,6,7-tetrahydrobenzo[b]thiophen-2-ylamino)-4-oxobutanoic acid]", "% inhibition at 25 μM": 81},
      {"smiles": "Cc1ccc(C(=O)Nc2sc3c(c2C(=O)O)CCCCC3)cc1", "note": "[CaCCinh-A12, 2-(4-methylbenzamido)-5,6,7,8-tetrahydro-4H-cyclohepta[b]thiophene-3-carboxylic acid]", "% inhibition at 25 μM": 15},
      {"smiles": "CCOC(=O)c1c(NC(=O)CCC(=O)O)sc2c1CCC(C(C)(C)C)C2", "note": "(centres unmarked) [CaCCinh-A06, 4-(6-tert-butyl-3-(ethoxycarbonyl)-4,5,6,7-tetrahydrobenzo[b]thiophen-2-ylamino)-4-oxobutanoic acid]", "% inhibition at 25 μM": 75},
      {"smiles": "Cc1cccc(NC(=O)c2c(NC(=O)CCC(=O)O)sc3c2CCC(C(C)(C)C)C3)c1", "note": "(centres unmarked) [CaCCinh-A16, 4-(6-tert-butyl-3-(m-tolylcarbamoyl)-4,5,6,7-tetrahydrobenzo[b]thiophen-2-ylamino)-4-oxobutanoic acid]", "% inhibition at 25 μM": 42},
      {"smiles": "CCOC(=O)c1c(NC(=O)C2CCCCC2C(=O)O)sc2c1CCC(C(C)(C)CC)C2", "note": "(centres unmarked) [CaCCinh-A10, 2-(3-(ethoxycarbonyl)-6-tert-pentyl-4,5,6,7-tetrahydrobenzo[b]thiophen-2-ylcarbamoyl)cyclohexanecarboxylic acid]", "% inhibition at 25 μM": 75},
      {"smiles": "COC(=O)c1c(NC(=O)CCCC(=O)O)sc2c1CCC(C(C)(C)C)C2", "note": "(centres unmarked) [CaCCinh-A09, 5-(6-tert-butyl-3-(methoxycarbonyl)-4,5,6,7-tetrahydrobenzo[b]thiophen-2-ylamino)-5-oxopentanoic acid]", "% inhibition at 25 μM": 45},
      {"smiles": "Cc1cccc(C(=O)Nc2sc3c(c2C(=O)O)CCCC3)c1", "note": "[CaCCinh-A17, 2-(3-methylbenzamido)-4,5,6,7-tetrahydrobenzo[b]thiophene-3-carboxylic acid]", "% inhibition at 25 μM": "07"}
    ]},
    {"system": "calcium-activated chloride channel (CaCC)", "assay": "YFP fluorescence plate reader iodide influx assay in HT-29 cells (ATP/carbachol)", "assay_type": "cell-based, human", "settings": "class B aminothiazoles, semi-quantitative", "description": "as §1, §2, §3", "units": {"% inhibition at 25 μM": "%"}, "values": [
      {"smiles": "Cc1ccc(-c2nc(Nc3ccc(Cl)cc3Cl)sc2CC(=O)O)cc1", "note": "[CaCCinh-B04, 2-(2-(2,4-dichlorophenylamino)-4-p-tolylthiazol-5-yl)acetic acid]", "% inhibition at 25 μM": 65},
      {"smiles": "FC(F)(F)c1cccc(-c2csc(Nc3ccc(C4CCCCC4)cc3)n2)c1", "note": "[CaCCinh-B10, N-(4-cyclohexylphenyl)-4-(3-(trifluoromethyl)phenyl)thiazol-2-amine]", "% inhibition at 25 μM": 55},
      {"smiles": "Cc1ccc(-c2nc(Nc3ccc(C)c(Cl)c3)sc2CC(=O)O)cc1", "note": "[CaCCinh-B02, 2-(2-(3-chloro-4-methylphenylamino)-4-p-tolylthiazol-5-yl)acetic acid]", "% inhibition at 25 μM": 40},
      {"smiles": "CC(C)Cc1ccc(Nc2nc(-c3ccc(Oc4ccccc4)cc3)cs2)cc1", "note": "[CaCCinh-B09, N-(4-isobutylphenyl)-4-(4-phenoxyphenyl)thiazol-2-amine]", "% inhibition at 25 μM": 65},
      {"smiles": "CCNc1nc(-c2ccc(C)cc2)cs1", "note": "[CaCCinh-B13, N-ethyl-4-p-tolylthiazol-2-amine]", "% inhibition at 25 μM": 20},
      {"smiles": "COc1ccc(Nc2nc(-c3ccc(OC)cc3)c(CCC(=O)O)s2)cc1", "note": "[CaCCinh-B14, 3-(4-(4-methoxyphenyl)-2-(4-methoxyphenylamino)thiazol-5-yl)propanoic acid]", "% inhibition at 25 μM": 18},
      {"smiles": "CCCc1sc(Nc2ccc(C(=O)O)cc2)nc1-c1ccc(C)cc1C", "note": "[CaCCinh-B06, 4-(4-(2,4-dimethylphenyl)-5-propylthiazol-2-ylamino)benzoic acid]", "% inhibition at 25 μM": 100},
      {"smiles": "Cc1ccc(-c2nc(NC(=O)c3cccc(C)c3)sc2-c2ccccc2)cc1", "note": "[CaCCinh-B12, 3-methyl-N-(5-phenyl-4-p-tolylthiazol-2-yl)benzamide]", "% inhibition at 25 μM": "03"},
      {"smiles": "Cc1ccc(-c2nc(Nc3ccc(Br)cc3)sc2CC(=O)O)c(C)c1", "note": "[CaCCinh-B07, 2-(2-(4-bromophenylamino)-4-(2,4-dimethylphenyl)thiazol-5-yl)acetic acid]", "% inhibition at 25 μM": 70},
      {"smiles": "CCOc1ccc(Nc2nc(-c3ccc(C)cc3)c(CC(=O)O)s2)cc1", "note": "[CaCCinh-B11, 2-(2-(4-ethoxyphenylamino)-4-p-tolylthiazol-5-yl)acetic acid]", "% inhibition at 25 μM": 65},
      {"smiles": "Cc1ccc(-c2nc(Nc3cccc(Br)c3)sc2CC(=O)O)cc1", "note": "[CaCCinh-B03, 2-(2-(3-bromophenylamino)-4-p-tolylthiazol-5-yl)acetic acid]", "% inhibition at 25 μM": 60},
      {"smiles": "Cc1ccc(-c2nc(Nc3cccc(C(F)(F)F)c3)sc2CC(=O)O)c(C)c1", "note": "[CaCCinh-B08, 2-(4-(2,4-dimethylphenyl)-2-(3-(trifluoromethyl)phenylamino)thiazol-5-yl)acetic acid]", "% inhibition at 25 μM": 75},
      {"smiles": "Cc1ccc(-c2nc(Nc3cccc(C(F)(F)F)c3)sc2CC(=O)O)cc1", "note": "[CaCCinh-B05, 2-(4-p-tolyl-2-(3-(trifluoromethyl)phenylamino)thiazol-5-yl)acetic acid]", "% inhibition at 25 μM": 60}
    ]}
  ]
}
